Data on two compounds can be found in patent US20200289523A1, “FIXED DOSED PHARMACEUTICAL COMPOSITION COMPRISING AMIODIPINE, CANDESARTAN CILEXETIL AND HYDROCHLOROTHIAZIDE FOR THE TREATMENT OF HYPERTENSION” (MIDAS PHARMA GMBH, priority 2016, published 2020).

Series [1] in a line: In-vitro dissolution of tablets (Ph. Eur. 2.9.3/USP <711>). It is filed as physicochemical. Conditions: on changes of the composition of the formulation. On the procedure: The in-vitro dissolution of tablets was analyzed according to Ph.
Series [2] is described as follows: Solubility in various standard dissolution media (FIG. 1). It is filed as physicochemical. Conditions: at low pH-values.

Consider `NS(=O)(=O)c1cc2c(cc1Cl)NCNS2(=O)=O` [Hydrochlorothiazide, 6-chloro-1,1-dioxo-3,4-dihydro-2H-1,2,4-benzothiadiazine-7-sulfonamide], for which the “dissolution profile of Hydrochlorothiazide” value in series [1] is given as “not influenced by changes of the composition”.

As for `CCOc1nc2cccc(C(=O)OC(C)OC(=O)OC3CCCCC3)c2n1Cc1ccc(-c2ccccc2-c2nnn[nH]2)cc1` (centres unmarked) [Candesartan cilexetil], in series [2], the solubility entry is listed as “barely soluble”.
